# Measured values taken from patent publication US11628179B2, “Compounds for treating and preventing extracellular histone mediated pathologies” (priority 2017, dated 2023).
# Where “and” joins values, the source holds several entries; their conditions need not be identical. Equal entries are not always repeated. Structures can show the parent of a compound that is named as a salt.
# Tests used:
# [1] = tested on: Wistar rats; test: Rat caecal ligation and puncture (CLP), moderate sepsis; format: in vivo
# Experimental: Male Wistar rats (n=8/group) underwent laparotomy, caecal ligation and puncture (CLP) to stimulate faecal peritonitis and subsequent sepsis, then treated with saline (Control CLP) or 50 mg/kg of mCBS at 0, 5 and 10 hr post-op via i.p. injection and monitored for 20 hr. Once rats reached a state of severe morbidity they were humanely euthanased at which point a death was recorded.
# Rat caecal ligation and puncture (CLP) assay for sepsis. The CLP assay was performed in male Wistar rats as previously described (see Hubbard, W. J. et al. Cecal ligation and puncture. Shock 24 Suppl 1, 52-57 (2005).). Test compounds (50 mg kg^−1) dissolved in saline or an equivalent volume of saline only (Control cohort) were administered i.p. 5 min pre-CLP and 5, 10 and 15 h post-op until cessation of the experiment at 20 h. Sham-CLP rats underwent the same procedure, however, the caecum was not ligated or punctured and these rats received saline at the same times as above. At the conclusion of the experimental time period (20 h) or when morbidity required ethical euthanasia, the rats were anaesthetised and blood was collected via cardiac puncture into EDTA for subsequent analysis of liver (ALT) and kidney (creatinine) function by the Department of Pathology, The Canberra Hospital. The propensity for clots to form within the blood samples of the saline treated control CLP animals (despite the presence of EDTA) prevented successful analysis of plasma samples from all animals.
# [2] = tested on: whole blood coagulation; test: Inhibition of histone-induced perturbation of whole blood coagulation (ROTEM); format: biochemical, human; settings: mCBS 200 μg/mL
# Description: In comparison, the same volume of water had no effect (FIG. 19).
# [3] = tested on: human plasma proteins; test: Plasma protein binding by ultrafiltration, human plasma; format: in vitro ADME; settings: for Concentration of mCBS, 200 ng/mL Post-filter / Concentration of mCBS, 200 ng/mL Pre-filter / Concentration of mCBS, 2000 ng/mL Post-filter / Concentration of mCBS, 2000 ng/mL Pre-filter: replicates and Mean
# Experimental: Protein binding was assessed by an ultrafiltration method using Centrifree® Ultrafiltration Devices with a 30000 dalton molecular weight cut-off point. Briefly, known concentrations of mCBS (as free base) were added to human, rat and dog plasma samples and incubated for 20 min at 37° C. The samples were then subject to ultrafiltration to separate protein bound and unbound drug.
# mCBS stock solutions (10 μL) were spiked into solutions of each test matrix (490 μL) as listed below in Table 9 to have a final concentration of 200 ng/mL & 2000 ng/m L.
# Spiked samples were then incubated at 37° C. for 20 minutes in a water bath. Aliquots of the samples from each test group (500 μL) were transferred to the ultrafiltration devices (n=3) and centrifuged for 20 minutes at 1000 g. After centrifugation, aliquots of the ultrafiltrates (50 μL) were transferred to separate test tubes for extraction, alongside duplicate aliquots of the samples prior to ultrafiltration from each test group.
# For quantification of samples before ultrafiltration, samples were analysed against a freshly prepared standard curve in plasma.
# [4] = tested on: whole blood coagulation
# [5] = HPLC analysis of mCBS in buffer formulations after 28 days; format: physicochemical; settings: phosphate or citrate buffer, 25±2° C./60% RH and 40±2° C./75% RH
compound,measurement,setting,value
"CO[C@@H]1O[C@H](COS(=O)(=O)O)[C@@H](O[C@@H]2O[C@H](COS(=O)(=O)O)[C@@H](OS(=O)(=O)O)[C@H](OS(=O)(=O)O)[C@H]2OS(=O)(=O)O)[C@H](OS(=O)(=O)O)[C@H]1OS(=O)(=O)O [mCBS, β-O-methyl cellobioside sulfate]",survival rate,"[1]; 50 mg/kg i.p. at 0, 5 and 10 hr post-op, monitored 20 hr",100%
same,circulating LDH levels,"[1]; 50 mg/kg i.p., Control CLP 1.1±0.2, p=0.03",0.6±0.1 U/L×10^3
same,ALT or creatinine levels between the groups,[1]; mCBS vs Control CLP,No differences
same,inhibition of histone-induced prolongation of clotting time,[2],able to inhibit the anticoagulant effects of both 400 and 800 μg/mL of histones
same,Plasma protein binding (%),[3]; 200 ng/mL,22.3%
same,Plasma protein binding (%),[3]; 2000 ng/mL,15.8%
same,"Concentration of mCBS, 200 ng/mL Post-filter",[3],181 ng/mL and 150 ng/mL and 169 ng/mL
same,"Concentration of mCBS, 200 ng/mL Pre-filter",[3],217 ng/mL and 213 ng/mL
same,"Concentration of mCBS, 2000 ng/mL Post-filter",[3],1860 ng/mL and 1750 ng/mL and 1770 ng/mL
same,"Concentration of mCBS, 2000 ng/mL Pre-filter",[3],2190 ng/mL and 2070 ng/mL
same,"Concentration of mCBS, 200 ng/mL Post-filter",[3]; mean,167 ng/mL
same,"Concentration of mCBS, 200 ng/mL Pre-filter",[3]; mean,215 ng/mL
same,"Concentration of mCBS, 2000 ng/mL Post-filter",[3]; mean,1793 ng/mL
same,"Concentration of mCBS, 2000 ng/mL Pre-filter",[3]; mean,2130 ng/mL
same,concentration that doubled the control clotting time,[4],100000 ng/mL
same,"reduction in anticoagulant activity compared to LMWH, Enoxaparin",[4],110 fold
same,variation from nominal after 28 days,[5],~2 % of nominal
